Measurements taken from patent US20070128217A1 (priority 2003, published 2007).

Experiments:
[1] = system: antibodies in sera from SARS patients (sera 1a, 1b, 2, 6, 37, 62, London, SARS-yellow, SARS-green); format: binding, human
[2] = system: control sera (pooled serum of ten healthy LUMC hospital workers; commercial negative donor pooled serum from the Dutch bloodbank); format: binding, human
[3] = system: rabbit serum obtained by immunizing a rabbit with the SARS-CoV strain Frankfurt 1; format: binding; parameters: Binding of a rabbit serum to linear peptides / Binding of a rabbit serum to looped peptides / Rabbit serum linear peptides / Rabbit serum looped peptides / Binding of a rabbit serum to linear peptides of protein N of SARS-CoV Urbani (Rabbit serum linear peptides) / Binding of a rabbit serum to looped/cyclic peptides of protein N of SARS-CoV Urbani (Rabbit serum looped peptides): unit not given here

Sequence | Binding of serum 1a to linear peptides of protein E of SARS-CoV Urbani [1] | Binding of serum 1a to looped/cyclic peptides of protein E of SARS-CoV Urbani [1] | Binding of serum 1b to linear peptides of protein E of SARS-CoV Urbani [1] | Binding of serum 1b to looped/cyclic peptides of protein E of SARS-CoV Urbani [1] | Binding of serum 2 to linear peptides of protein E of SARS-CoV Urbani [1] | Binding of serum 2 to looped/cyclic peptides of protein E of SARS-CoV Urbani [1] | Binding of serum 6 to linear peptides of protein E of SARS-CoV Urbani [1] | Binding of serum 6 to looped/cyclic peptides of protein E of SARS-CoV Urbani [1] | Binding of serum 37 to linear peptides of protein E of SARS-CoV Urbani [1] | Binding of serum 37 to looped/cyclic peptides of protein E of SARS-CoV Urbani [1] | Binding of serum 62 to looped/cyclic peptides of protein E of SARS-CoV Urbani [1] | Binding of serum London to looped/cyclic peptides of protein E of SARS-CoV Urbani [1] | Binding of serum SARS-green to looped/cyclic peptides of protein E of SARS-CoV Urbani [1] | Binding of serum SARS-yellow to looped/cyclic peptides of protein E of SARS-CoV Urbani [1] | Binding of Control Serum Blood-Bank to Looped peptides [2] | Binding of Control serum Blood-bank to linear peptides [2] | Binding of Control serum LUMC to linear peptides [2] | Binding of Control serum LUMC to looped peptides [2] | Binding of a rabbit serum to linear peptides [3] | Binding of a rabbit serum to looped peptides [3] | also measured
LTALRLCAYCCNIVN | 0.9 | 0.6 | 0.8 | 0.4 | 0.4 | 0.7 | 0.7 | 0.5 | 0.8 | 0.7 | 0.7 | 0.3 | 0.3 | 0.4 | 0.7 | 0.7 | 0.5 | 0.6 | 0.6 | 0.4 | Binding of serum 62 to linear peptides of protein E of SARS-CoV Urbani [1]: 0.7; Binding of serum London to linear peptides of protein E of SARS-CoV Urbani [1]: 0.5; Binding of serum SARS-green to linear peptides of protein E of SARS-CoV Urbani [1]: 0.3; Binding of serum SARS-yellow to linear peptides of protein E of SARS-CoV Urbani [1]: 0.2
LVTLAILTALRLCAY | 0.8 | 0.6 | 0.5 | 0.5 | 0.6 | 1.0 | 0.7 | 0.4 | 0.7 | 0.7 | 0.6 | 0.4 | 0.6 | 0.4 | 0.6 | 0.6 | 0.3 | 0.8 | 0.4 | 0.3 | Binding of serum 62 to linear peptides of protein E of SARS-CoV Urbani [1]: 0.7; Binding of serum London to linear peptides of protein E of SARS-CoV Urbani [1]: 0.5; Binding of serum SARS-green to linear peptides of protein E of SARS-CoV Urbani [1]: 0.3; Binding of serum SARS-yellow to linear peptides of protein E of SARS-CoV Urbani [1]: 0.1
SEETGTLIVNSVLLF | 0.9 | 0.4 | 0.7 | 0.3 | 0.3 | 0.3 | 0.7 | 0.5 | 0.7 | 0.4 | 0.7 | 0.5 | 0.4 | 0.5 | 0.6 | 0.5 | 0.6 | 0.5 | 0.7 | 0.0 | Binding of serum 62 to linear peptides of protein E of SARS-CoV Urbani [1]: 0.7; Binding of serum London to linear peptides of protein E of SARS-CoV Urbani [1]: 0.5; Binding of serum SARS-green to linear peptides of protein E of SARS-CoV Urbani [1]: 0.4; Binding of serum SARS-yellow to linear peptides of protein E of SARS-CoV Urbani [1]: 0.1
SFVSEETGTLIVNSV | 0.9 | 0.5 | 0.7 | 0.4 | 0.6 | 0.5 | 0.6 | 0.4 | 0.8 | 0.6 | 0.7 | 0.5 | 0.4 | 0.7 | 0.7 | 0.9 | 0.6 | 0.7 | 0.5 | 0.1 | Binding of serum 62 to linear peptides of protein E of SARS-CoV Urbani [1]: 0.8; Binding of serum London to linear peptides of protein E of SARS-CoV Urbani [1]: 0.5; Binding of serum SARS-green to linear peptides of protein E of SARS-CoV Urbani [1]: 0.5; Binding of serum SARS-yellow to linear peptides of protein E of SARS-CoV Urbani [1]: 0.1
TGTLIVNSVLLFLAF |  | 0.4 |  | 0.3 |  | 0.4 |  | 0.3 |  | 0.3 | 0.6 | 0.3 | 0.2 | 0.4 | 0.4 | 0.6 | 0.3 | 0.5 | 0.5 | 0.0 | 
